In US20090264415A2 (priority 2004, published 2009):
Read-outs that look alike come from different tables or passages of the source.

Columns and labels:
[1] = system: peripheral blood mononuclear cells (PBMC) stimulated with allogeneic PBMC or EBV-transformed human B cells (RPMI1788); assay: Mixed lymphocyte reaction (MLR) assay; type: cell-based
Procedure, shortened: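 Responder PBMC co-cultured in triplicate with 30 Gy-irradiated allogeneic PBMC or RPMI1788 B cells plus compound (DMSO stock 10 mM, diluted in medium). After 5 days at 37° C, 1 μCi [3H]-thymidine added for 16 h more; incorporated cpm counted and proliferation inhibition calculated.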

[2] = system: production of human TNF-α by PBMC in response to LPS; assay: TNF-α assay (LPS-stimulated PBMC, sandwich ELISA); type: cell-based
Procedure, shortened: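 Human PBMC isolated from heparinised blood by density gradient (10^6 cells/ml) stimulated with LPS at 1 μg/ml final, with test compound at 0.1, 1 and 10 μM, 72 h at 37° C, 5% CO2. Supernatant TNF-α quantified by sandwich ELISA against recombinant standard curve; % suppression calculated.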

[3] = system: HCV replicon in Huh-5-2 cells; assay: Anti-HCV assay/replicon assay (luciferase); type: cell-based; conditions: Hepatitis C virus
Procedure: (§1) Huh-5-2 cells [a cell line with a persistent HCV replicon I3891uc-ubi-neo/NS3-3′/5.1; replicon with firefly luciferase-ubiquitin-neomycin phosphotransferase fusion protein and EMCV-IRES driven NS3-5B HCV polyprotein] was cultured in a RPMI medium (commercially available from Gibco) supplemented with 10% fetal calf serum, 2 mM L-glutamine (commercially available from Life Technologies), 1× non-essential amino acids (commercially available from Life Technologies); 100 IU/ml penicillin, 100 μg/ml streptomycin and 250 μg/ml G418 (Geneticin, commercially available from Life Technologies). Cells were seeded at a density of 7,000 cells per well in 96 well View Plate (commercially available from Packard) in a medium containing the same components as described above, except for G418. Cells were allowed to adhere and proliferate for 24 hours. […] Luciferase activity was measured by adding 50 μl of 1×Glo-lysis buffer (commercially available from Promega) for 15 minutes followed by 50 μl of the Steady-Glo Luciferase assay reagent (commercially available from Promega). Luciferase activity was measured with a luminometer and the signal in each individual well was expressed as a percentage of the untreated cultures. […] Instead the density of the culture was measured by means of the MTS method (commercially available from Promega). […]

[4] = Cytostatic effect on Huh-5-2 cells (MTS method); type: cell-based; conditions: human, 50% inhibition of cell growth
Procedure: as §1

[5] = system: production of human IL-1β by PBMC in response to LPS; assay: IL-1β assay (LPS-stimulated PBMC, sandwich ELISA); type: cell-based; conditions: LPS 1 μg/ml, 72 hours
Procedure: Peripheral blood mononuclear cells (herein referred as PBMC), in response to stimulation by lipopolysaccharide (LPS), a gram-negative bacterial endotoxin, produce various […], in particular human IL-1β. Inhibition of the activation of PBMC can therefore be measured by the level of suppression of the production of IL-1β by PBMC in response to stimulation by LPS.
Such inhibition measurement was performed as follows: PBMC were isolated from heparinized peripheral blood by density gradient centrifugation over Lymphoprep (commercially available from Nycomed, Norway). LPS was then added to the PMBC suspension in complete medium (10^6 cells/ml) at a final concentration of 1 μg/ml. The pteridine derivative to be tested was added at different concentrations (0.1 μM, 1 μM and 10 μM) and the cells were incubated at 37° C. for 72 hours in 5% CO2. The supernatants were collected, then IL-1β concentrations were measured with an anti-IL-1β antibody in a sandwich ELISA. The calorimetric reading of the ELISA was measured by a Multiskan RC plate reader (commercially available from ThermoLabsystems, Finland) at 450 nm (reference wavelength: 690 nm). Data analysis was performed with Ascent software 2.6. (also from ThermoLabsystems, Finland): a standard curve (recombinant human IL-1β) was drawn and the amount (pg/ml) of each sample on the standard curve was determined.
The % suppression of human IL-1β by the pyrido[3,2-d]pyrimidine derivatives of this invention was calculated using the formula: [formula]

[6] = system: phosphodiesterase-4 (PDE-4) extract from U937 cells; assay: Phosphodiesterase-4 inhibiting activity (isotopic two-step method); type: biochemical; conditions: for IC50: 1.01 μM [3H]cAMP+cAMP
[7] = Homo sapiens, RPMI-1788, 50% suppression of the MLR, [3H]-thymidine incorporation, read-out: MLR
[8] = Homo sapiens, PBMC, LPS 1 μg/ml, 72 hours, read-out: TNF α
[9] = 50% suppression of the MLR, [3H]-thymidine incorporation, read-out: MLR
[10] = LPS 1 μg/ml, 72 hours, read-out: TNF α

CCCCOc1nc(N)nc2ccc(-c3ccccc3F)nc12
melting point: 147 to 148 °C

COc1ccc(-c2ccc3nc(N)nc(Nc4cccc(C)c4)c3n2)cc1OC [Example 27, 2-amino-4-(3-methyl-anilino)-6-(3,4-dimethoxyphenyl)-pyrido[3,2-d]pyrimidine]
IC50 [1, 7]: 5700 nM | IC50 [2, 8]: 6.4 µM | EC50 ([3]; Huh-5-2 replicon cells, 72 hours, read-out: EC50): 500 nM | CC50 at 72 h [4]: > 50000 nM

CCOc1nc(NC(C)=O)nc2ccc(Cl)nc12
melting point: 233 °C

CCCCCOc1nc(N)nc2ccc(-c3cccc(F)c3)nc12
melting point: 142 to 143 °C

CCCOc1nc(NC(C)=O)nc2ccc(Cl)nc12
melting point: 191 °C

CCOc1nc(N)nc2ccc(-c3cccc(F)c3)nc12
melting point: 174 °C

CC(C)COc1nc(N)nc2ccc(-c3ccc(F)cc3)nc12
melting point: 196 °C

COc1ccc(-c2ccc3nc(N)nc(NCc4cccs4)c3n2)cc1OC [Example 32, 2-amino-4-(thienyl-2-methylamino)-6-(3,4-dimethoxyphenyl)-pyrido[3,2-d]pyrimidine-2,4-diamine]
IC50 [1, 9]: 800 nM | IC50 [5]: 6900 nM | IC50 [2, 10]: 0.8 µM

CC(C)Oc1nc(N)nc2ccc(-c3cccc(F)c3)nc12
melting point: 200 to 201 °C

COc1ccc(-c2ccc3nc(N)nc(N[C@H]4CC[C@H](N)CC4)c3n2)cc1OC [Example 36]
IC50 ([1]; Homo sapiens, RPMI-1788, read-out: MLR (μM)): 6500 nM | IC50 ([2]; Homo sapiens, PBMC, 72 h, read-out: TNF α (μM)): 2.9 µM | EC50 ([3]; Huh-5-2, 72 h): 1000 nM | CC50 at 72 h [4]: 7700 nM

CCC(C)Oc1nc(NC(C)=O)nc2ccc(Cl)nc12 (stereo not shown)
melting point: 143 to 144 °C

COc1ccc(-c2ccc3nc(N)nc(N4CCOCC4)c3n2)cc1OC [Example 41, 2-amino-4-morpholino-6-(3,4-dimethoxyphenyl)-pyrido[3,2-d]pyrimidine]
IC50 [1, 7]: 37 nM | IC50 [6]: 410 nM | IC50 ([5]; Homo sapiens, PBMC): 7900 nM | IC50 [2, 8]: 0.03 µM

CCCCOc1nc(NC(C)=O)nc2ccc(-c3ccc(F)cc3)nc12
melting point: 170 °C

COc1ccc(-c2ccc3nc(N)nc(N4CCN(C(=O)Nc5cccc(C)c5)CC4)c3n2)cc1OC [Example 42, 2-amino-4-(4-{[(3-methylphenyl)amino]carbonyl}piperazin-1-yl)-6-(3,4-dimethoxyphenyl)-pyrido[3,2-d]pyrimidine]
IC50 [1, 7]: 0.064 nM | IC50 [6]: 61 nM | IC50 ([5]; Homo sapiens, PBMC): 1800 nM | IC50 [2, 8]: 0.06 µM

Nc1nc(OCc2ccccc2)c2nc(-c3cccc(F)c3)ccc2n1
melting point: 199 to 200 °C

CCCCOc1nc(N)nc2ccc(-c3cccc(F)c3)nc12
melting point: 160 to 161 °C

CC(C)Oc1nc(N)nc2ccc(-c3ccc(F)cc3)nc12
melting point: 191 to 192 °C

NC(=O)c1nc(Cl)ccc1N
melting point: 176 to 177 °C

CC(=O)Nc1nc(OCC(C)C)c2nc(Cl)ccc2n1
melting point: 168 °C

CCCCOc1nc(N)nc2ccc(-c3ccc(F)cc3)nc12
melting point: 172 to 173 °C

Nc1nc(OCc2ccccc2)c2nc(-c3ccccc3F)ccc2n1
melting point: 200 to 202 °C

CCCCCOc1nc(NC(C)=O)nc2ccc(Cl)nc12
melting point: 174 °C

CC(=O)Nc1nc2ccc(Cl)nc2c(=O)[nH]1
melting point: 317 to 319 °C

CCCCCOc1nc(N)nc2ccc(-c3ccccc3F)nc12
melting point: 136 to 137 °C

CCC(C)Oc1nc(N)nc2ccc(-c3cccc(F)c3)nc12 (stereo not shown)
melting point: 158 to 159 °C

Nc1nc(OCc2ccccc2)c2nc(-c3ccc(F)cc3)ccc2n1
melting point: 225 °C

CCOc1nc(N)nc2ccc(-c3ccccc3F)nc12
melting point: 182 °C

CCC(C)Oc1nc(N)nc2ccc(-c3ccc(F)cc3)nc12 (stereo not shown)
melting point: 148 °C

CC(=O)Nc1nc(OC(C)C)c2nc(Cl)ccc2n1
melting point: 244 °C

Nc1nc2ccc(Cl)nc2c(=O)[nH]1
melting point: > 330 °C

COc1ccc(-c2ccc3nc(N)nc(N4CCN(C(=O)Nc5cccc(Cl)c5)CC4)c3n2)cc1OC [Example 58, 2-amino-4(N-3-chloro-phenyl-carbamoyl-piperazin-1-yl)-6-(3,4-dimethoxy-phenyl)-pyrido[3,2-d]pyrimidine]
IC50 [1, 9]: 0.4 nM | PDE-4 (% inhibition) ([6]; @ 0.1 μM): 75% @ 0.1 μM | IC50 [2, 10]: 0.26 µM

COc1ccc(-c2ccc3nc(N)nc(N4CCN(C(=O)Nc5ccsc5)CC4)c3n2)cc1OC [Example 54, 2-amino-4(N-3-thienylcarbamoyl-piperazin-1-yl)-6-(3,4-dimethoxyphenyl)-pyrido[3,2-d]pyrimidine]
IC50 [1, 9]: 2 nM | PDE-4 (% inhibition) ([6]; @ 0.1 μM): 62% @ 0.1 μM | IC50 [2, 10]: 0.05 µM

CCOc1nc(N)nc2ccc(-c3ccc(F)cc3)nc12
melting point: 188 to 189 °C

COc1ccc(-c2ccc3nc(N)nc(N4CCN(C(=O)Nc5ccc(F)c(Cl)c5)CC4)c3n2)cc1OC [Example 57, 2-amino-4(N-3-chloro-4-fluoro-phenyl-carbamoyl-piperazin-1-yl)-6-(3,4-dimethoxyphenyl)-pyrido[3,2-d]pyrimidine]
IC50 [1, 9]: 4 nM | PDE-4 (% inhibition) ([6]; @ 0.1 μM): 74% @ 0.1 μM | IC50 [2, 10]: 0.3 µM

CCC(C)Oc1nc(N)nc2ccc(-c3ccccc3F)nc12 (stereo not shown)
melting point: 159 °C

CC(C)COc1nc(N)nc2ccc(-c3cccc(F)c3)nc12
melting point: 185 °C

CC(C)COc1nc(N)nc2ccc(-c3ccccc3F)nc12
melting point: 165 °C

CCOc1cc(-c2ccc3ncnc(N4CCN(C(=O)Nc5cccc(Cl)c5)CC4)c3n2)ccc1OC [Example 213, 4-[N-(3-chloro-phenylcarbamoyl)-piperazin-1-yl]-6-(3-ethoxy-4-methoxy-phenyl)-pyrido[3,2-d]pyrimidine]
IC50 [1, 7]: 57 nM | PDE-4 (% inhibition) ([6]; @ 0.06 μM): 78% @ 0.06 μM | IC50 [2, 8]: 0.06 µM

CC(=O)Nc1nc(OC(C)C)c2nc(-c3ccc(F)cc3)ccc2n1
melting point: 196 to 197 °C
